Experiments:
SU86.86 cells = assay: qPCR, immunoblotting and flow cytometry of PD-L1 and MHC-I pathway expression in SU86.86 cells; assay type: cell-based, human
Protocol: (See Bardeesy, N., et al. supra). The human PDAC cell lines SU86.86 ([…]), SW1990 ([…]), BXPC-3 ([…]), Miapaca-2 ([…]), Capan-1 ([…]), ASPC-1 ([…]), Hs766T ([…]), Colo357/FG ([…]), L3.6PL ([…]), Panc28 ([…]), Capan-2 ([…]), CF-Pac-1 ([…]), Panc3 (sex unknown), Panc1 ([…]), Panc48 (sex unknown), and HPAC ([…]) were from Mien-Chie Hung's lab stock. […] The BXPC-3, Miapaca-2, Capan-1, ASPC-1, Colo357/FG, L3.6PL, Panc28, Capan-2, CF-Pac-1, Panc3, Panc1, Panc48, and HPAC cell lines were cultured in DMEM/F-12 (Corning, 10-092-CV) supplemented with 10% FBS and 1% penicillin/streptomycin. Cells were grown in a humidified incubator with 5% CO2 at 37° C., and low-passage stocks were maintained in a centralized lab cell bank. Short tandem repeat profiling and mycoplasma tests were done by the Cytogenetics and Cell Authentication Core at MD Anderson Cancer Center.
Membranes were blocked with 10% non-fat milk in TBST and incubated with the primary antibody at 4° C. overnight, followed by incubation with the secondary antibody conjugated with horseradish peroxidase (HRP).

BXPC-3 cells = assay: qPCR and immunoblotting of PD-L1 and MHC-I in BXPC-3 cells; assay type: cell-based, human; conditions: MIFE 20 μM (qPCR) or indicated doses (immunoblot), 72 h
From the text: The male PDAC cell lines HY24409 and HY24160 and the female PDAC cell line HY19636 were established from KPC mice (p48-Cre; Kras^LSL-G12D/+; Trp53^loxP/+) that were backcrossed to a C57BL/6 background (purity: ˜ 98%). (See Bardeesy, N., et al. supra). The human PDAC cell lines SU86.86 ([…]), SW1990 ([…]), BXPC-3 ([…]), Miapaca-2 ([…]), Capan-1 ([…]), ASPC-1 ([…]), Hs766T ([…]), Colo357/FG ([…]), L3.6PL ([…]), Panc28 ([…]), Capan-2 ([…]), CF-Pac-1 ([…]), Panc3 (sex unknown), Panc1 ([…]), Panc48 (sex unknown), and HPAC ([…]) were from Mien-Chie Hung's lab stock. The HY24409, HY24160, HY19636, SU86.86, SW1990, and Hs766T cell lines were cultured in RPMI 1640 (Corning, 10-041-CV) supplemented with 10% fetal bovine serum (FBS) (Gibco, 10438-034) and 1% penicillin/streptomycin (Sigma, P4333). The BXPC-3, Miapaca-2, Capan-1, ASPC-1, Colo357/FG, L3.6PL, Panc28, Capan-2, CF-Pac-1, Panc3, Panc1, Panc48, and HPAC cell lines were cultured in DMEM/F-12 (Corning, 10-092-CV) supplemented with 10% FBS and 1% penicillin/streptomycin. Cells were grown in a humidified incubator with 5% CO2 at 37° C., and low-passage stocks were maintained in a centralized lab cell bank. Short tandem repeat profiling and mycoplasma tests were done by the Cytogenetics and Cell Authentication Core at MD Anderson Cancer Center. […]

HY24409 cells = assay: Cell cycle analysis after double thymidine block; assay type: cell-based, mouse; conditions: flow cytometry; mifepristone 20 μM, 48 h pretreatment; unsynchronized and after release from double thymidine block
Protocol: Cell cycle analysis Cells were seeded in 6-well plates (2×10^5 cells per well) and treated with 2 mM thymidine (Sigma-Aldrich, T9250-1G) for 18 hours, fresh medium for 9 hours, and 2 mM thymidine again for 17 hours to arrest cells in G1/S phases for synchronization. Released cells were collected at the indicated time points by centrifugation, washed in cold PBS, resuspended in 1 ml of 70% ethanol, and stored at −20° C. overnight. Cells were then collected by centrifugation and washed two times with cold PBS. To ensure that only DNA was stained, cells were treated with 50 μl of 100 μg ml^−1 RNase (New England Biolabs, T3018L), and added 425 μl of cell staining buffer (2% FBS in PBS) and 25 μl of propidium iodide solution (BioLegend, 421301). After staining, samples were analyzed by flow cytometry. Cells were gated for PI staining and the cells in G1, S, and G2/M phases were quantitated using FlowJo software.

[1] = system: orthotopic HY24409 tumors; assay: Immune checkpoint blockade experiments in male C57BL/6 mice bearing orthotopic HY24409 tumors; assay type: in vivo, mouse; conditions: compared with the vehicle+IgG control
Protocol: Orthotopic pancreatic tumor size was determined by MRI. Subcutaneous tumor size was measured with a caliper. […] Animal body weight was measured throughout the study.

In the case of `CC#C[C@]1(O)CC[C@H]2[C@@H]3CCC4=CC(=O)CCC4=C3[C@@H](c3ccc(N(C)C)cc3)C[C@@]21C` [mifepristone], the PD-L1 protein (SU86.86 cells; Western blot and flow cytometric analysis, MIFE 72 h) is reported as “downregulated”, the “MHC-I and B2M proteins” value (SU86.86 cells; Western blot and flow cytometry, MIFE 72 h) is reported as “upregulation” and the “mRNA levels of components in the MHC-I pathway, including HLA-A, HLA-B, HLA-C, B2M, SEC61B, and SEC61G” value (SU86.86 cells; qPCR, MIFE 20 μM, 72 h) is reported as “increased”. For the same compound, the “mRNA levels of immune checkpoint ligands, including PD-L1, CD47, TDO, and SIGLEC15” value (SU86.86 cells; qPCR, MIFE 20 μM, 72 h) was “decreased”, the “MHC-I at both mRNA and protein levels” value (BXPC-3 cells) was “significantly upregulated” and the “PD-L1 at both mRNA and protein levels” value (BXPC-3 cells) was “downregulated”. For the same compound, the cell cycle profile (HY24409 cells) was “neither GR knockdown (FIGS. 11Q-11R) nor mifepristone treatment (FIGS. 11S-11T) altered the cell cycle profile” and the survival [1] was “did not lead to a significant improvement in survival”.

— US20250032506A1, “GLUCOCORTICOID RECEPTOR BLOCKADE WITH MIFEPRISTONE TO SENSITIZE PANCREATIC CANCER TO IMMUNOTHERAPY” (BOARD OF REGENTS, THE UNIVERSITY OF TEXAS SYSTEM, priority 2021, published 2025)
